The nature of data set [1]: Solubility of D-peptides in buffer (UV-vis of supernatant after centrifugation). The note with it: different buffers including PBS, aqueous buffer; different buffer conditions including PBS pH 7.4; 1 h at 37° C., 20 800×g centrifugation; read-out: starting concentration up to which the compound remained completely in the supernatant. Type of data set: physicochemical. The source says: D-enantiomeric peptides with C-terminal amidation were acquired from CASLO (CASLO, DK) as a lyophilized chloride salt powder having a purity of >95%.

The target in data set [2] is α-syn (Homo sapiens, UniProt P37840, A140C). Briefly: MST measurement of SVD-1 and α-syn (FIG. 2, α-syn 140C-C2-Alexa 647). It is filed as binding. The source says: 70% LED power; 60% MST power.
The target in the next data set is WT alpha-synuclein (Homo sapiens, UniProt P37840). Put plainly: Multicycle SPR experiment of WT alpha-synuclein and immobilized SVD-1 (FIG. 3). It is filed as binding. As for the experimental part:
WT α-syn was injected in a concentration range of […] in PBS, PH 7.4. Regeneration: 2 M Gua-HCl and 0.1% SDS.

For a further data set, the target named is α-syn oligomers (Homo sapiens, UniProt P37840). Briefly: α-syn oligomer elimination, HPLC-SEC of supernatant (FIG. 4). Type of data set: biochemical. The note with it: SVD-1 150 and 250 μM; 5 μM monomer-equivalent oligomers, 3 days, 900 rpm, 37° C. The source says: The samples were centrifuged at 21 000×g and the supernatant was loaded onto an HPLC-SEC column.

Data set [3] has as its target α-syn (Homo sapiens, UniProt P37840). Put plainly: Gradient centrifugation of α-syn aggregation samples (FIG. 6). To be noted: equimolar SVD-1, 9 days, 37° C., no shaking, Iodixanol gradient. It is filed as biochemical. Here is the method:
No shaking, no glass beads, at 37° C. After 9 days, the triplet samples were combined together and 100 μl was added to an Iodixanol gradient (5-50% (w/v)). 15 fractions, each of 140 μl were analyzed by means of RP-HPLC using a Zorbax 300 SB-C8 column and integrated to α-syn peaks.

The target of the next data set is full-length α-syn (Homo sapiens, UniProt P37840). Briefly: MST measurement of fluorophore-labeled peptides with full-length α-syn (FIG. 10). Type of data set: binding. The note with it: 100 nM labeled peptide, PBS pH 7.4, 25° C., individual measurement. As for the experimental part: The peptides were fluorescence labeled by means of cysteine-maleimide coupling. SVD-1_Cys and SVD 1a_Cys were fluorescence labeled at the C-terminus with a fivefold or tenfold molar excess of TCEP and CF633-PEG2-maleimide (Sigma-Aldrich, USA). The labeling reaction was carried out in 25 mM NaPi, PH 7.0, for 2 h at RT. The labeled peptides were purified at 25° C. using an Agilent 1260 Infinity II System and a C-18 RP-HPLC column (Zorbax 300 SB-C8/SB-C 18, Agilent, USA). The mobile phases consisted of A: water+0.1% TFA, and B: acetonitrile+0.1% TFA. The fluorescence-labeled peptides and proteins were eluted with a gradient of 5-40% (v/v) B in 30 min. The fluorescence-labeled products were fractionated using the absorption wavelength of the fluorophore (CF633: 633 nm) and the pooled samples were subsequently lyophilized and redissolved in the appropriate buffer. The protein concentrations were determined by means of UV-vis and the fluorescence-labeled samples were stored at −20° C.
The experiments for microscale thermophoresis (MST) were carried out using a Monolith NT.115 device (NanoTemper Technologies GmbH, GE). Fluorescence-labeled peptides were diluted in PBS, PH 7.4 to a final concentration of 100 nM. […] The data was evaluated with the thermophoresis effect, using the NT analysis software (version 1.5.41) supplied by the manufacturer. […]

The subject of the next data set is PC12 cells. It is filed as cell-based. To be noted: rat, 24 h, 15 μM. As for the experimental part: PC12 cells (Leibniz-Institut DSMZ, GE) were cultured at 37° C. on a collagen A-coated (Biochrom GmbH, GE) tissue culture flask in RPMI 1640 medium, supplemented with 5% fetal calf serum and 10% horse serum in an atmosphere humidified to 95% with 5% CO2. 10 000 cells per well in a volume of 100 μl were seeded into collagen A-coated 96-well plates (Thermo Fisher Scientific, USA and incubated for 24 hours at 37° C. and 300 rpm in a thermocycler.
Furthermore, 15 μM of the peptides alone, cell media, buffer without peptide and 0.1% Triton X-100 (cytotoxic compound) were used as controls. After further incubation in a 95% humidified atmosphere with 5% CO2 at 37° C. for 24 hours, the viability of the cells was measured using the Cell Proliferation Kit I (MTT) (Roche Applied Science, CH), following the manufacturer's protocol.
The MTT-formazan product was quantified by measuring the absorbance at 570 nm, corrected by subtracting the absorbance at 660 nm, in a FluoroStar Optima plate reader (BMG labtech, GE). All results were normalized to untreated cells grown only in medium. The significance test was carried out by one-way ANOVA with Bonferroni post-hoc analysis (OriginPro 2020, OriginLab, USA; n=4).
The significance test was carried out by one-way ANOVA with Bonferroni post-hoc analysis: […], ***p≤0.01. The means are stated±SD (n=4).

The target in another data set is WT α-syn (Homo sapiens, UniProt P37840). Briefly: Single cycle SPR experiment of WT α-syn on CM5-immobilized peptides (FIG. 8). To be noted: 1:1 binding model fit, CM5 chip, PBS pH 7.4, 0.005% Tween-20. Here is the method:
Each peptide was immobilized on a CM5 sensor chip surface. WT α-syn was injected in a concentration range of 30-500 nM in PBS, PH 7.4, 0.005% (v/v) Tween-20. Regeneration was carried out after every cycle with 2 M Gua-HCl for 2×30 sec. The KDs were determined with a 1:1 binding model fit, as follows: SVD-1a: 15.7 nM; SVD-6a: 14.0 nM; SVD-10a: 12.3 nM.
Background: Surface plasmon resonance follows binding to a sensor surface in real time, without labels.

The test system of data set [4] is αSynA53T-YFP cells (HEK293T). Briefly: Cell assay for seeded α-synuclein aggregation (FIG. 19). It is filed as cell-based, human. Here is the method: A construct encoding full-length A53T-mutated human α-syn and fused with YFP at the C-terminus was synthesized and introduced into the pMK-RQ expression vector (GeneArt; Thermo Fisher Scientific, USA). The α-synA53T-YFP construct was sub-cloned using the restriction sites NheI (5′) and NotI (3′) in the vector pIRESpuro3 (Clontech; Takara Bio, JPN). HEK293T cells (American Type Culture Collection) were cultured in high-glucose Dulbecco's Modified Eagle's Medium (DMEM; Sigma-Aldrich, USA) which had 10% fetal calf serum (Sigma-Aldrich, USA), 50 units/ml penicillin, and also 50 μg/ml streptomycin (Sigma-Aldrich, USA) added thereto. The cells were cultured at 37° C. in a humidified atmosphere with 5% CO2.
The cells plated in DMEM were transfected with Lipofectamine 2000 (Invitrogen; Thermo Fisher Scientific, USA). Stable cells were selected in DMEM with 1 μg/ml puromycin (EMD Millipore, USA). Monoclonal cell lines were produced by means of fluorescence-activated cell sorting of a polyclonal cell population in 96-well plates using a MoFlo XDP cell sorter (Beckman Coulter, USA). […]
The plates were then incubated at 37° C. in a humidified atmosphere with 5% CO2. On the third day, the cells were imaged in an IN Cell Analyzer 6500HS system (Cytiva, USA) using the blue and green fluorescence channels, and analyzed by the IN Carta Image Analysis software (Cytiva, USA) which had been used to establish an algorithm for identifying intracellular aggregates in living cells. Four wells were used for each condition and 16 images were recorded per well and analyzed by a fully-automated algorithm in order to prevent distortions. […]
In order to validate the inhibitory effect of SVD-1a in cells, use was made of the α-synA53T-YFP cell system which stably expresses human α-syn with the familial A53T mutation, fused with YFP, in HEK293T cells, and the fluorescence-based detection of aggregates makes it possible to clearly show the strongly fluorescent spots within the cells against the background, intracellularly after seeding with PFF oligomers. […] Panels C, F and I show αSynA53T-YFP fluorescence. […]

Like-named read-outs stand apart in the source and are kept apart here. Square brackets hold non-standard residues; d marks the D form. Peptide text beside a SMILES is read from it. Where only a bound is given, the exact number is not on record here.

Consider `CC[C@@H](C)[C@@H](NC(=O)[C@@H](Cc1c[nH]cn1)NC(=O)[C@@H](CCC(=O)O)NC(=O)[C@@H](CCC(N)=O)NC(=O)[C@@H](Cc1c[nH]c2ccccc12)NC(=O)[C@@H](Cc1ccc(O)cc1)NC(=O)[C@H](NC(=O)[C@@H](CCC(=O)O)NC(=O)[C@@H](Cc1c[nH]cn1)NC(=O)[C@H](NC(=O)[C@H]1CCCN1C(=O)[C@@H](CCSC)NC(=O)[C@H](N)CCCCN)[C@H](C)O)[C@H](C)O)C(=O)N[C@H](Cc1c[nH]c2ccccc12)C(=O)N[C@H](Cc1c[nH]cn1)C(=O)N[C@H](C)C(N)=O` [SVD-1, kmpthetywqehiwha] (H-[dK][dM][dP][dT][dH][dE][dT][dY][dW][dQ][dE][dH][dI][dW][dH][dA]-NH2), for which the solubility at 1 h in data set [1] was ≥ 1000 µM. In addition, the Kd on α-syn [2] was 55 nM; at WT alpha-synuclein (heterogeneous ligand adjustment, PBS pH 7.4, read-out: KD1), 12.5 nM; at WT alpha-synuclein (read-out: KD2, heterogeneous ligand adjustment, PBS pH 7.4), 2000 nM; at full-length α-syn it was 170 nM. Further, the “α-syn oligomer in the supernatant” value on α-syn oligomers is recorded as “not possible to detect any α-syn oligomer in the supernatant”. In addition, the “fibril formation (fractions F6-F12)” value on α-syn [3] is “No fibril formation (F6-F12) was observed”. Besides, the “cells saved (cell viability)” value in the data set with PC12 cells was found to be 89%.

At WT α-syn, `C[C@H](O)[C@@H](NC(=O)[C@@H](CC(N)=O)NC(=O)[C@@H](Cc1c[nH]c2ccccc12)NC(=O)[C@@H](Cc1ccc(O)cc1)NC(=O)[C@H]1CCCN1C(=O)[C@H]1CCCN1C(=O)[C@@H](CC(N)=O)NC(=O)[C@@H](Cc1c[nH]c2ccccc12)NC(=O)[C@@H](CCC(N)=O)NC(=O)[C@@H](CCC(N)=O)NC(=O)[C@@H](Cc1c[nH]c2ccccc12)NC(=O)[C@@H](Cc1c[nH]cn1)NC(=O)[C@@H](CO)NC(=O)[C@H](N)CO)C(=O)N[C@H](CC(=O)O)C(=O)N[C@H](CO)C(=O)N[C@H](CCCNC(=N)N)C(=O)N[C@H](CCCNC(=N)N)C(=O)N[C@H](CCCNC(=N)N)C(=O)N[C@H](CCCNC(=N)N)C(=O)N[C@H](CCCNC(=N)N)C(N)=O` [SVD-10a, sshwqqwnppywntdsrrrrr] (H-[dS][dS][dH][dW][dQ][dQ][dW][dN][dP][dP][dY][dW][dN][dT][dD][dS][dR][dR][dR][dR][dR]-NH2) showed a Kd of 12.3 nM.

In turn, `CC(C)C[C@@H](NC(=O)[C@H]1CCCN1C(=O)[C@@H](CCC(N)=O)NC(=O)[C@@H](CCCNC(=N)N)NC(=O)[C@@H](Cc1c[nH]c2ccccc12)NC(=O)[C@@H](CC(=O)O)NC(=O)[C@H](N)Cc1ccc(O)cc1)C(=O)N[C@H](CO)C(=O)N[C@H](C)C(=O)N[C@H](CO)C(=O)N[C@H](CCCNC(=N)N)C(=O)N[C@H](Cc1ccccc1)C(=O)N[C@H](CC(C)C)C(=O)N[C@H](C)C(=O)N1CCC[C@@H]1C(=O)N[C@H](Cc1c[nH]c2ccccc12)C(=O)N[C@H](CCCNC(=N)N)C(=O)N[C@H](CCCNC(=N)N)C(=O)N[C@H](CCCNC(=N)N)C(=O)N[C@H](CCCNC(=N)N)C(=O)N[C@H](CCCNC(=N)N)C(N)=O` [SVD-6a, ydwrqplsasrflapwrrrrr] (H-[dY][dD][dW][dR][dQ][dP][dL][dS][dA][dS][dR][dF][dL][dA][dP][dW][dR][dR][dR][dR][dR]-NH2) gave a Kd at WT α-syn of 14 nM.

kgvgnleyqlwalegk-NH2 came in with a cells with aggregation in data set [4] (25 μM peptide, seeded with soluble α-syn-PFF oligomers, third day) of 85%. Further, in data set [4] (seeded with 30 nM PFF oligomers, day 3, two-stage transfection), the “inhibition of α-syn aggregation in cells” value is listed as “not”.

Values taken from patent publication US20250346629A1, “USE OF D-ENANTIOMERIC PEPTIDE LIGANDS OF MONOMERIC ALPHA-SYNUCLEIN FOR THE THERAPY OF VARIOUS SYNUCLEINOPATHIES” (PRIAVOID GMBH, priority 2021, published 2025).
